In patent publication US20240116962A1, “PYRIDINE-2-AMINE DERIVATIVE AND PHARMACEUTICAL COMPOSITION AND USE THEREOF” (TSINGHUA UNIVERSITY, priority 2020, published 2024):
Like-named read-outs stand apart in the source and are kept apart here.

Key:
[1] = target: T1, hTLR7 (Homo sapiens, UniProt Q9NYK1); experiment: EC50 assay for small molecule agonists, HEK-Blue hTLR7 cells, SEAP readout; format: cell-based; conditions: agonist activity
T1 construct: host or cells: HEK-Blue hTLR7 (HEK293-derived reporter cells with SEAP read-out)
T1 sequence (Q9NYK1 27-1049): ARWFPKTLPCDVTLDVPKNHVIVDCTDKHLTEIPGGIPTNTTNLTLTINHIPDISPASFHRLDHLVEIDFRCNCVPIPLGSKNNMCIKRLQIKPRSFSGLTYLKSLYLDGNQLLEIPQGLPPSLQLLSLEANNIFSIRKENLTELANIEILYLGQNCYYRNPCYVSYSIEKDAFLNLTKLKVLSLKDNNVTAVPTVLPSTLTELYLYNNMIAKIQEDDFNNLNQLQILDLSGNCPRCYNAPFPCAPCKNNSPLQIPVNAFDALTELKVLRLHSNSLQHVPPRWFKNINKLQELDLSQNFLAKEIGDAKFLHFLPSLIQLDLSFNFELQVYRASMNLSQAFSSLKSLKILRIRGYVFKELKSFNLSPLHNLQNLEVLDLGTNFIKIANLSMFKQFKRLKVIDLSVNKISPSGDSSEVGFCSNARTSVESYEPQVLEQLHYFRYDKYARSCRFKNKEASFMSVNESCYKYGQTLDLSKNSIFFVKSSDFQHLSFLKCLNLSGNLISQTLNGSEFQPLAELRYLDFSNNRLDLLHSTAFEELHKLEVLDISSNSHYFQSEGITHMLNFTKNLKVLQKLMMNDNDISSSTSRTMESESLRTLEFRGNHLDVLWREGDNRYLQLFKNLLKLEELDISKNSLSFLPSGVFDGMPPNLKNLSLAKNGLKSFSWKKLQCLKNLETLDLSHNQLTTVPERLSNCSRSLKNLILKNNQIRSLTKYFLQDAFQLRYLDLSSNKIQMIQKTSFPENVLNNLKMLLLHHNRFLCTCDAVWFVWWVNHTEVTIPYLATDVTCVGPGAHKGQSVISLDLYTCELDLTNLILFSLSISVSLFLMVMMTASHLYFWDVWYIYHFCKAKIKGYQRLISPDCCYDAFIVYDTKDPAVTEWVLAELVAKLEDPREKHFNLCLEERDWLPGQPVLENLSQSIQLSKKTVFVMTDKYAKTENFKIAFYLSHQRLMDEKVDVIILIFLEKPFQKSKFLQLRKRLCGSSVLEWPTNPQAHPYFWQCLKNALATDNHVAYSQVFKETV
Method: (§1) Reagents used for cell culture and detection for HEK-Blue™ hTLR7, HEK-Blue™ hTLR8 and control HEK-Blue Nu112k were as follows: DMEM (4.5 g/L glucose), bovine serum FBS, streptomycin ([…]), penicillin (50 U/mL), Blasticidin (10 mg/mL), Zeocin™ (10 mg/mL), Normocin (50 mg/mL), and HEK-Blue™ Detection. Basal medium was as follows: DMEM +10% FBS+streptomycin+penicillin+Normocin ([…]); selective medium for resistance genes was as follows: DMEM+10% FBS+streptomycin+penicillin+Normocin (1001 μg/mL)+Blasticidin (1001 μg/mL)+Zeocin™ (1001 μg/mL).
(§2) Cell preparation: HEK-Blue™ hTLR7 and HEK-Blue™ hTLR8 cell lines were purchased from Invivogen. The cells frozen in liquid nitrogen were taken, quickly placed in a water bath at 37° C., shaken occasionally, and completely melted within 1 min. The cells were transferred to 15 mL of pre-heated basal medium and resuspended; centrifuged at 1,000 r/min for 5 min, supernatant discarded; resuspended with 1 mL of basal medium, transferred to a T25 culture flask, supplemented to 5 mL with the medium, and incubated in an incubator at 37° C.; after stable passage twice, and subjected to selective antibiotic screening: HEK-Blue™ hTLR7 or HEK-Blue™ hTLR8: 100 μg/mL Zeocin+Blasticidin (30 μg/mL), HEK-Blue Nu112-k: 100 μg/mL Zeocin. The fluid was changed 3 times a week. When the number of cells reached 70%-80%, PBS was added, and the cells were exfoliated by gently pipetting.
(§3) Activity assay steps: (1) adding a test sample to a 96-well plate at 20 μL/well (triplicate wells were set); (2) adding 20 μL of positive control (e.g., R848), and adding 20 μL of negative control (e.g., ddH2O); (3) removing a T75 culture flask from the incubator, discarding the medium, adding 5-10 mL of pre-heated PBS, and gently pipetting the cells; adding 2-5 mL of PBS to the culture flask, incubating the culture flask in the incubator for 1-2 min, and then gently pipetting the cells to make them exfoliated; (4) mixing the mixture well, and counting the cells, without centrifugation; resuspending the cells with HEK-Blue™ assay solution and adjusting the cell number, taking care not to incubate for a long time to avoid too deep background or false positive. HEK-Blue hTLR cell number was about 2.2×10^5/mL, 180 μL/well (about 40000 cells), and HEK-Blue Nu112-k cell number was about 2.8×10^5/mL, 180 μL/well (about 50000 cells). (5) incubating the cells in the incubator at 37° C. for 6-16 h, and detecting at 620-655 nm for SEAP readings.
(§4) Effect %=(mean OD of the administration group−mean OD of the H2O group at each concentration)/(mean ODmax of the positive drug group−mean OD of the H2O group)×100. EC50 was calculated by fitting Lg [concentration]-effect curves using GraphPad Prism5 software.
(§5) Experimental results: the concentration for 50% of maximal effect (EC50) refers to a corresponding concentration of small molecules that can cause 50% of the maximal agonistic effect. […] EC50 represents a potency for agonizing the TLR8 receptor, with smaller values indicating better efficacy. […] In the following table, the unit of the agonist activity is nanomole, unless otherwise specified.

[2] = target: T2, hTLR8 (Homo sapiens, UniProt Q9NR97); experiment: EC50 assay for small molecule agonists, HEK-Blue hTLR8 cells, SEAP readout; format: cell-based
T2 construct: host or cells: HEK-Blue hTLR8 (HEK293-derived reporter cells with SEAP read-out)
T2 sequence (Q9NR97 27-1041): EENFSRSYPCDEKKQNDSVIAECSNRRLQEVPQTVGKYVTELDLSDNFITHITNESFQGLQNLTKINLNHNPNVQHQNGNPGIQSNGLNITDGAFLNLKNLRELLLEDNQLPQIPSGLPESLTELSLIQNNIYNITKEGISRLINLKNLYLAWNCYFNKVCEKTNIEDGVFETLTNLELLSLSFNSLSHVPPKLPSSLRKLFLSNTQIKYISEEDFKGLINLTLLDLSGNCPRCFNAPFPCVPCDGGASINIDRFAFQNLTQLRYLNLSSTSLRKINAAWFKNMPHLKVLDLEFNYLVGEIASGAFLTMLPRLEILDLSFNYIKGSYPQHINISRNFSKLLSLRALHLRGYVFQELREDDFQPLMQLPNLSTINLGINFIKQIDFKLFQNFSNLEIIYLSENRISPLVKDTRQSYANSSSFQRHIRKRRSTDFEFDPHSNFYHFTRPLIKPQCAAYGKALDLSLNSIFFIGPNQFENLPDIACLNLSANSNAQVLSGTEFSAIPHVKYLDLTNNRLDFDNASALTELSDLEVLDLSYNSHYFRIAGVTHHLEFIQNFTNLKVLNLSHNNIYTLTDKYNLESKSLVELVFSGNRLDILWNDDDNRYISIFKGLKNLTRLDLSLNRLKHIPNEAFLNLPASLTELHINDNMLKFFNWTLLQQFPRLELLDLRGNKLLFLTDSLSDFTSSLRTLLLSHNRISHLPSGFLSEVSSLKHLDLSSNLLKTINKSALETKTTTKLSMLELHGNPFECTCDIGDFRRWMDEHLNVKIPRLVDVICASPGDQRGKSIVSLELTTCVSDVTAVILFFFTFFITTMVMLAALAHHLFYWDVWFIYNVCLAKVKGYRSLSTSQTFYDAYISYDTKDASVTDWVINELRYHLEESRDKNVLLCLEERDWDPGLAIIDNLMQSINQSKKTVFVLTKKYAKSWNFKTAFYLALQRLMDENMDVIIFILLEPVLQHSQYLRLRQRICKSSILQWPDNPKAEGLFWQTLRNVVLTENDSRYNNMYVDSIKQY
Method: as §1, §2, §3, §4, §5

[3] = agonist activity, read-out: hTLR8(EC50)
[4] = read-out: concentration for 50% of maximal effect (EC50) hTLR8

| Structure (SMILES) | EC50 ([1]; nd = EC50 larger than 25 μM) [nM] | EC50 [2, 3] [nM] | EC50 [1] [nM] | EC50 [2, 4] [nM] |
| --- | --- | --- | --- | --- |
| CCCCCc1cc(Cc2ccc(CN(C)CCOCCOCCC(F)(F)P(=O)(OCC)OCC)cc2)c(C)nc1N [Compound N25] | > 25000 | > 4000 | – | – |
| CCCCCc1cc2nc(Cc3ccc(CN4CCCC4)cc3)ccc2nc1N [Compound N2] | > 25000 | 480 | – | – |
| COCCCc1cc(Cc2ccc(CN(C)C)cc2)c(C)nc1N [Compound N28] | > 25000 | > 4000 | – | – |
| CCCCCc1cc(Cc2ccc(CN(C)C)cc2F)c(C)nc1N [Compound N23] | > 25000 | 80 | – | – |
| CCCCCc1cc(Cc2ccc(CN3CC[C@@H](O)C3)cc2)c(C)nc1N [Compound N19] | > 25000 | 104 | – | – |
| CCCCCc1cc(Cc2ccc(CN(C)CCC(=O)OC)cc2)c(C)nc1N [Compound N15] | > 25000 | 628 | – | – |
| CCCN(CCC)C(=O)C1=Cc2ccc(-c3ccc(C(=O)N4CCCC4)cc3)cc2N=C(N)C1 [VTX2337, reference compound] | – | – | > 3000 | 102 |
| CCCCCc1cc(Cc2ccc(CN(C)C)cc2)cnc1N [Compound N31] | > 25000 | 248 | – | – |
| CCCCCc1cc(Cc2ccc(CN3CCN(C)CC3)cc2OC)c(C)nc1N [Compound N45] | > 25000 | 166 | – | – |
| CCCCCc1cc(Cc2ccc(CN(C)C)cc2OC(=O)CC(C)C)c(C)nc1N [Compound N52] | > 25000 | 252 | – | – |
| CCCCCc1cc(Cc2ccccc2CN2CCCC2)c(C)nc1N [Compound N35] | > 25000 | > 4000 | – | – |
| CCCCCc1cc(Cc2ccc(CN3CCCC3)cc2)c(C)nc1N [Compound N7] | > 25000 | 63 | – | – |
| CCCCCc1cc(Cc2ccc(C(=O)N3CCOCC3)cc2)c(C)nc1N [Compound N40] | > 25000 | > 4000 | – | – |
| CCCCNc1cc(Cc2ccc(CN3CC4(COC4)C3)cc2)c(C)nc1N [Compound N57] | > 25000 | 16 | – | – |
| CCCCCc1cc(Cc2ccc(CN3CCN(C)CC3)cc2OC(C)=O)c(C)nc1N [Compound N53] | > 25000 | 273 | – | – |
| COCCCc1cc(Cc2ccc(CN3CCCC3)cc2)c(C)nc1N [Compound N29] | > 25000 | > 4000 | – | – |
| CCCCCc1cc(Cc2ccc(CN(C)C)cc2O)c(C)nc1N [Compound N46] | > 25000 | 351 | – | – |
| CCCCNc1cc(Cc2ccc(CN3CC4(COC4)C3)cc2F)c(C)nc1N [Compound N58] | > 25000 | 40 | – | – |
| CCCCCc1cc(Cc2ccc(CN3CCCCC3)cc2)c(C)nc1N [Compound N9] | > 25000 | 54 | – | 40 |
| CCCCCc1cc(Cc2ccc(CN3CCCC3)cc2O)c(C)nc1N [Compound N47] | > 25000 | 473 | – | – |
| CCCCCc1cc2nc(Cc3ccc(CN(C)C)cc3)ccc2nc1N [Compound N1] | > 25000 | 398 | – | – |
| CCCCCc1cc(Cc2ccc(CN3CCN(C)CC3)cc2O)c(C)nc1N [Compound N49] | > 25000 | 627 | – | – |
| CCCCCc1cc(Cc2ccc(CN3CCCC3)cc2OC(C)=O)c(C)nc1N [Compound N51] | > 25000 | 175 | – | – |
| COCCCc1cc(Cc2ccc(CN3CCN(C)CC3)cc2)c(C)nc1N [Compound N30] | > 25000 | > 4000 | – | – |
